# Results: US20250018019A1, “TREATMENT OF INTERFERON DRIVEN INFLAMMATION” (The Provost, Fellows, Foundation Scholars and the other …, priority 2023, published 2025)
# B1: IFN-β: recombinant mouse IFN-β1 used to stimulate BMDMs (protein, UniProt P01575 22-182, looked up)
# Interferon beta: INYKQLQLQERTNIRKCQELLEQLNGKINLTYRADFKIPMEMTEKMQKSYTAFAIQEMLQNVFLVFRNNFSSTGWNETIVVRLLDELHQQTVFLKTVLEEKQEERLTWEMSSTALHLKSYYWRVQRYLKLMKYNSYAWMVVRAEIFRNFLIIRRLTRNFQN
# How the values were obtained:
# Type in all cases: cell-based, mouse
# BMDMs [1] = assay: ELISA of cytokine release from BMDMs; details: LPS 4 h; for LPS-induced IFN-β release: BMDMs pre-treated
# Method: (§1) All compounds used DMSO as a vehicle except for 4-hydroxy tamoxifen (EtOH), NAC (PBS), and AOAA for tracing experiments (Media). LPS was used at a concentration of 100 ng/ml for indicated timepoints (2, 3, 4, 6, 8, 24, 48 h). FHIN1 (10 or 20 μM), MMF (50 or 100 μM), DMF (25 μM), AOAA (5 mM), oligomycin (10 μM), CCCP (50 μM) NAC (1 mM), and IMT1 (10 μM) pre-treatments were performed for 3 h prior the addition of LPS. Cells were treated with valinomycin (10 nM) 15 mins before LPS stimulation. Anti-CD210 or IgG control (10 μg/ml) antibodies were added to cells 1 h prior to LPS stimulation. Recombinant mouse IL-10 protein (100 ng/ml) was added to cells at the same time as LPS. Cells were treated with IFN-B1 (220 ng/ml) for 3 h. Cells were treated with C-178 (1 μM) 1 h prior to LPS stimulation or transfection with 2′3′-cGAMP (1.5 μg/ml) for 4 hrs to achieve cGAS-STING activation. Cells were treated with ODN 2088 (1 μM) for 1 hr prior to LPS stimulation or transfection with CPG ODN 1826 (1.5 μg/ml) to achieve TLR9 activation. 3 different timepoints of 4-hydroxy tamoxifen (TAM) (600 nM or 2 μM) or EtOH treatment were performed-these are specified in the individual figure legends. For ‘48 h’ treatments EtOH/TAM was added on day 5 of 6 during the BMDM differentiation protocol. On day 6 they were plated with EtOH/TAM (left overnight) and treated the following day. For ‘72 h’ treatments EtOH/TAM was added on day […] of 6 during the BMDM differentiation protocol. On day 6 they were plated with EtOH/TAM (left overnight) and treated the following day. For ‘96 h’ treatments EtOH/TAM was added on day […] of 6 during the BMDM differentiation protocol. On day 6 they were plated with EtOH/TAM and treated 2 days later.
# (§2) Pre-designed silencer select siRNAs for Cgas (s103166), Tmem173 (s91058), Tlr3 (s100579), Tlr9 (s96268), As/(s99640), Tlr7 (s100720), Ddx58 (s106376), Ifih1 (s89787), Nrf2 (s70522), Atf4 (s62689) and negative control (4390843) were ordered from Thermo Fisher. siRNA sequences are given in Table S2. Cells were transfected with 50 nM siRNA using 5 μl lipofectamine RNAiMAX according to manufacturer's instructions (Thermo Fisher). Cells were transfected in medium without serum and antibiotics which was replaced with complete medium 8 hours later. Cells were subsequently left for at least a further 12 hours prior to treatment.
# BMDMs were plated in the presence or absence of ultrapure ethidium bromide (100 ng/ml) and incubated for a further 6 days prior to treatment. Depletion of mtDNA was determined by genomic DNA isolation followed by qPCR using primers specific for areas of mitochondrial DNA (D-loop) and areas of mtDNA that are not inserted into nuclear DNA (Non-NUMT).
# DuoSet ELISA kits for IL-1β, TNFα, IL-6, IL-10, and GDF15 were purchased from R&D Systems and were carried out according to the manufacturer's instructions with appropriately diluted cell supernatants added to each plate in duplicate or triplicate. IFN-β was determined using DuoSet ELISA kit from R&D Systems or Abcam (ab252363). Quantikine ELISA kit for IFN-β (R&D Systems) was used for determination of IFN-β concentration in serum samples and from human cells, and these were also carried out according to the manufacturer's instructions. Absorbance at 450 nm was quantified using a FLUOstar Optima plate reader. Corrected absorbance values were calculated by subtracting the background absorbance, and cytokine concentrations were subsequently obtained by extrapolation from a standard curve plotted on GraphPad Prism 9.2.0.
# BMDMs [2] = assay: Digitonin fractionation, qPCR of mtDNA and mtRNA
# Method: as §1
# BMDMs were plated at 0.5×10^6 cells/well and treated as desired. After treatment, cells were washed once with room temperature PBS, before being scraped on ice into ice cold PBS and pelleted at 500×g for 5 mins at 4° C. Supernatant was removed and discarded, and the pellet was resuspended in 400 μl extraction buffer (150 mM NaCl, 50 mM HEPES pH 7.4, 25 μg/ml digitonin). Samples were then placed in a rotating mixer at 4° C. for 10 mins before centrifugation at 2000×g at 4° C. for 5 mins. The resulting supernatant constituted the cytosolic fraction, from which RNA and DNA were isolated using an AllPrep DNA/RNA Mini Kit (Qiagen). Alternatively, the cytosolic fraction was concentrated using Strataclean Resin (Agilent) and analysed by western blot. The pellet constituted a fraction containing membrane-bound organelles which was lysed in RNA lysis buffer for RNA isolation or lysed in western blot lysis buffer for analysis by western blot. To determine the presence of mtRNA and mtDNA in the cytosol, qPCR was performed using primers specific for mitochondrial D-loop on cDNA which had been reverse-transcribed from RNA isolated from the cytosolic fraction (mtRNA) and on DNA isolated from the cytosolic fraction (mtDNA). In both cases, values were normalised using a housekeeping control gene (β-actin) amplified in cDNA which had been reverse-transcribed from RNA isolated from the membrane-bound fraction.
# BMDMs [3] = assay: Flow cytometry, CellROX and TMRM staining; details: BMDMs pre-treated, LPS 4 h; oligomycin 10 μM, CCCP 50 μM, valinomycin 10 nM, MMF 50 or 100 μM
# Method: as §1
# Cells were plated in 12-well plates and treated as desired. CellROX Green (5 μM, Thermo Fisher) or TMRM (20 nM, Thermo Fisher) was added to cells 30 mins prior to end of cell treatments. Cells were washed once in PBS and scraped into 200 μl FACS buffer (2 mM EDTA, 0.5% FCS in PBS). Acquisition of samples was performed on a BD Accuri C6 flow cytometer. The gating strategy used for all flow cytometry experiments consisted of debris exclusion by FSC-A vs SSC-A analysis and subsequent doublet exclusion by FSC-A vs FSC-H analysis. A sample gating strategy is provided in Supplementary FIG. 2. 10,000 cells was acquired per condition. Mean fluorescence intensity (MFI) was calculated for all cells in each condition using FlowJo v10.
# BMDMs [4] = assay: Immunofluorescence, Mitotracker Red and dsRNA; details: BMDMs pre-treated, relative to DMSO control, LPS 4 h
# Method: as §1
# Cells were plated on 20 mm cover slips in 12-well plates. Cells were treated as required and Mitotracker Red CMXRos (100 nM, Thermo Fisher), was added to medium 30 mins prior to end of cell treatments. After 30 min incubation, cells were washed three times with warm PBS. Cells were subsequently fixed for 10 mins with 4% paraformaldehyde/PBS at 37° C. Cells were washed three times with PBS and permeabilized for 1 hour in block solution (1% BSA, 22.52 mg/ml glycine, 0.1% tween 20 in PBS). Anti-dsRNA antibody (Merck) was diluted 1/60 in block solution and incubated with cells overnight at room temperature. Cells were washed three times with PBS for 5 mins/wash. […] Images were analysed using the LAS X Life Science Microscope Software Platform (Leica). The same microscope instrument settings were used for all samples and all images were analysed using the same settings. […] Quantification of dsRNA or Mitotracker Red CMXRos signal intensity was performed using the measure function in ImageJ 1.53t (NIH).
# BMDMs [5] = assay: RT-qPCR gene expression in BMDMs
# Method: as §1
# RNA extraction from cells was carried out using a Purelink™ RNA kit (Invitrogen) according to the manufacturer's instructions. BMDMs were treated as required, and following treatment were instantly lysed in 350 μl RNA lysis buffer. Isolated RNA was quantified using a NanoDrop 2000 spectrophotometer, and RNA concentration was normalised to the lowest concentration across all samples with RNAse-free water. If necessary, samples were DNAse-treated after quantification using DNAse I (Thermo Fisher) according to the manufacturer's instructions. Isolated RNA samples were normalised and converted into cDNA using the High-Capacity cDNA Reverse Transcription Kit (Thermo Fisher) according to manufacturer's instructions. 10 μl of RNA (at a maximum concentration of 100 ng/μl) was added to 10 μl of reverse transcription master mix to complete the reaction mixture. Real-time quantitative PCR was performed on the cDNA generated in the previous step, using primers designed in-house and ordered from Eurofins Genomics, as detailed in Table S2. The reaction was performed in a 96-well qPCR plate by a 7500 Fast Real-Time PCR machine (Thermo Fisher). Relative expression (2^−ΔΔCT) was calculated from the CT values for each sample and gene of interest.
# as §2
Molecule,LPS-induced IFN-β release (BMDMs [1]),"mitochondrial membrane potential (MMP), TMRM staining (BMDMs [3])",dsRNA accumulation (immunofluorescence) (BMDMs [4]),also measured
"CC[C@H]1/C=C/C=C/C[C@@H](C)[C@H](O)[C@@](C)(O)C(=O)[C@@H](C)[C@H](O)[C@@H](C)C(=O)[C@@H](C)[C@H](O)[C@@H](C)/C=C/C(=O)O[C@@H]2[C@H](C)[C@H](CC1)O[C@]1(CC[C@H](C)[C@H](C[C@@H](C)O)O1)[C@H]2C [oligomycin A, Oligomycin A]",boosted,boosted,accumulation of dsRNA to a similar extent to that observed in cells treated with FHIN1,mtDNA in cytosolic extracts (D-loop) (BMDMs [2]; digitonin-fractionated BMDMs): increase; mtRNA in cytosolic extracts (BMDMs [2]; digitonin-fractionated BMDMs): increased
"CC(C)[C@@H]1NC(=O)[C@H](C)OC(=O)[C@@H](C(C)C)NC(=O)[C@@H](C(C)C)OC(=O)[C@H](C(C)C)NC(=O)[C@H](C)OC(=O)[C@@H](C(C)C)NC(=O)[C@@H](C(C)C)OC(=O)[C@H](C(C)C)NC(=O)[C@H](C)OC(=O)[C@@H](C(C)C)NC(=O)[C@@H](C(C)C)OC1=O [valinomycin A, valinomycin]",boosted,non-significantly reduced,similarly drove dsRNA accumulation,–
Cc1ccccc1-c1cc(=O)oc2cc(OC(C)C(=O)N(C)C)ccc12 (centres unmarked) [IMT1],–,–,–,"effect on the FHIN1-mediated boost in IFN-β release (BMDMs [1]; BMDMs co-treated with FHIN1 and IMT1 10 μM): abrogated; effect on the increase in mtRNA with FHIN1 (cytosolic and whole cell fraction) (BMDMs [2]; BMDMs co-treated with FHIN1 and IMT1 10 μM, LPS 4 h): inhibited in both"
N#CC(C#N)=NNc1cccc(Cl)c1 [CCCP],boosted,significantly dissipated,–,–
"CC(=O)N[C@@H](CS)C(=O)O [NAC, N-acetyl cysteine]",–,–,–,"suppression of Il10 by FHIN1 and DMF (BMDMs [5]; BMDMs, NAC 1 mM together with FHIN1 or DMF, LPS 4 h): abrogated"
B1,–,–,–,"Fh1 expression (BMDMs [5]; IFN-β-stimulated BMDMs (220 ng/ml, 3 h)): inhibited"
